Reference: US20110076331A1, “Use of Deuterium Oxide as an Elastase Inhibitor” (priority 2008, published 2011)

What was measured:
[1] = test system: patients with type 1 sensitization and allergic rhinitis; assay: Nasal spray in allergic rhinitis; assay type: in vivo, human; conditions: isotonic saline using 70% D2O, 6 times a day, 14 days, vs H2O group
Procedure: A solution with D2O was prepared accordingly for application as nasal spray. […] The number of sneezing attacks was determined and the intensity of runny nose and nasal itching measured by visual analog scales as parameters. For this purpose a patient diary was used.
A solution with D2O was prepared according to example 21 for use as nasal spray. […] The number of sneezing attacks was determined as parameter and the intensity of runny nose and nasal itching were measured by visual analog scales. For this purpose a patient diary was used.

[2] = test system: Wistar rats; assay: Animal model of allergic conjunctivitis (chicken protein); assay type: in vivo, rat; conditions: D2O-based isotonic saline trickled together with chicken protein
Procedure: A corresponding animal model was used to test the efficacy of eye drops prepared with D2O (Minami et al., Biol. Pharm. Bull 28:473-476, 2005). In 6-week-old Wistar rats an allergy to chicken protein was produced by injection of chicken protein together with alum and 10^10 B. pertussis into the soles of the feet and then a booster with chicken protein in the back area. Before the experiment the animals were kept in a climatized cage and after 10 minutes of adaptation 5 μL chicken protein solution was trickled into each eye. The animals were then transferred to an observation cage and the scratching movements in the direction of the eyes counted over a period of 20 minutes. Hyperemia and conjunctival edema were then determined.
To investigate an effect of D2O on the symptoms caused by chicken protein either H2O- or D2O-based isotonic saline was trickled together with the chicken protein in a double-blind design.

[3] = test system: subjects with colds accompanied by severe nasal obstruction; assay: Decongestion of nasal mucosa (rhinomanometry); assay type: in vivo, human; conditions: one pump spray of D2O saline in each nostril
Procedure: Physiological saline was prepared from D2O (experiment group) and H2O (control group) and filled into a pump spray container as is ordinarily used to release nasal spray. Subjects with colds accompanied by severe nasal obstruction were divided into two groups of eight subjects each. Air flow through the nose was determined by rhinomanometry (initial value) in each subject right before treatment (after thorough removal of secretions). The subjects of the experimental group then each received one pump spray of D2O saline in each nostril, while the subjects of the control group received H2O saline instead in the same amount. Thirty and 60 minutes after application air flow was determined in each subject by rhinomanometry and the percent change of air flow relative to the initial value was calculated. From these values an average was formed for the verum and control groups (average percentage change in air flow <Lf%>). A positive value of <Lf%> indicates an increase, a negative value a reduction in air flow. For the experimental group after 30 minutes a value of <Lf%>=20±5% and after 60 minutes <Lf%>=90±10% was obtained. The control group gave <Lf%>=10±5% after 30 minutes and <Lf%>=5±5% after 60 minutes.

[4] = test system: patients with Wegener's disease; assay: D2O infusions in Wegener's granulomatosis (open study); assay type: in vivo, human; conditions: 500 mL isotonic saline prepared with 70% D2O infused once a day over a week in addition to individual therapy; vs conventionally treated patients
Procedure: Activation of neutrophil granulocytes is assigned importance in the pathogenesis of Wegener granulomatosis. The disease activity can be determined by determining proteinase 3-antineutrophil cytoplasmic antibodies (PR3-ANCA).
In patients with Wegener's disease in an open study the effect of additional infusion of 500 mL of an isotonic saline solution prepared with 70% D2O was investigated once a day over a week in addition to individual systemic therapy in five patients. Determination of PR3-ANCA in the serum before and after 1 week after the last D2O infusion served as control parameter. Five patients in whom individual therapy was used exclusively without additional infusions served as comparison. […] This permits the conclusion that systemic use of D2O for adjunctive therapy of systemic vasculites is suitable.

[5] = target: T1, human neutrophil elastase (HNE) (Homo sapiens, UniProt P08246); assay: Inhibition of AAPV conversion by human neutrophil elastase (photometric, 405 nm); assay type: biochemical
T1 sequence (P08246 30-267): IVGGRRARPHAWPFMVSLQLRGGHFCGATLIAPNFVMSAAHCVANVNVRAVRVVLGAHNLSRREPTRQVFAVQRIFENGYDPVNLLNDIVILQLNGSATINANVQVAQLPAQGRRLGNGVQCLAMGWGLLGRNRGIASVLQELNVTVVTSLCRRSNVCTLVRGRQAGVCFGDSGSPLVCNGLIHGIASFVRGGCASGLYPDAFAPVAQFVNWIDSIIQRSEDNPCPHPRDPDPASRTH
Procedure: Measurement of AAPV conversation occurred spectrophotometrically at a wavelength of 405 nm.
HNE was incubated together with the synthetic substrate N-methoxysuccinyl-Ala-Ala-Pro-Val-p-nitroanilide (AAPV). Conversion of AAPV was then determined photometrically at 405 nm. The following incubation scheme was used: • Sample 1) HNE IN D2O with AAPV in D2O; • Sample 2) HNE in D2O with AAPV in H2O; • Sample 3) HNE in H2O with AAPV in D2O; • Control: HNE in H2O with AAPV in H2O.
The enzyme and substrate were each incubated for 60 minutes with H2O or D2O before HNE and AAPV were added together. The amount of D2O in the experiments was varied over a range from 10 to 100% in order to detect the dependence of inhibition of AAPV conversion by HNE.
A half-maximum effective dose was determined at a D2O content of about 40 vol %. At 100% D2O in the mixture an inhibition of AAPV conversion of about 70% was achieved.

[6] = test system: subjects with acute sinusitis; assay: Aerosol inhalation in acute sinusitis (rhinoendoscopy); assay type: in vivo, human; conditions: D2O aerosol with 150 mM NaCl inhaled for 15 minutes
Procedure: Aerosols from D2O and H2O each mixed with 150 mM NaCl were prepared according to example 2. Subjects with acute sinusitis in the maxillary sinus area were divided into two groups. The experimental group inhaled the D2O aerosol for 15 minutes, the control group the H2O aerosol. During inhalation the subjects were relied on to inhale through the nose as much as possible. Every 3 hours after inhalation a rhinoendoscopic examination of the sinuses was conducted.

- half-maximum effective dose (D2O content) for inhibition of AAPV conversion ([5]; D2O amount in the mixture of HNE and AAPV, 60 minutes preincubation): about 40 vol %
- inhibition of AAPV conversion ([5]; at 100% D2O in the mixture): about 70%
SMILES: [2H]O[2H] [D2O, deuterium oxide]
- sneezing attacks, intensity of runny nose and nasal itching (recorded parameters) [1]: significant reduction of the recorded parameters
- number of scratching movements in the eye direction ([2]; after 20 minutes, vs H2O): significant reduction in the number of scratching movements
- hyperemia and edema ([2]; vs H2O group): reduced
- average percentage change in air flow <Lf%> ([3]; after 30 minutes): 20±5%
- average percentage change in air flow <Lf%> ([3]; after 60 minutes): 90±10%
- PR3-ANCA values in the serum [4]: stronger reduction of PR3-ANCA values
- mucosal swelling ([6]; vs H2O aerosol control group): significant reduction of mucosal swelling
- outflow of secretion ([6]; vs control group): improved outflow of secretion
